Patent publication US5179093A, “Quinoline-diones” (Schering Corporation, priority 1991, dated 1993)
In brackets after ≈: the same amount, converted by molar mass.

Experiments:
[1] = tested on: HSV-2 (strain MS); experiment: Transient expression of beta galactosidase in transfected HeLa cells superinfected with HSV-2 (HSV-β-GAL assay); assay type: cell-based; conditions: Human alphaherpesvirus 2, plasmid pON 245^ori-, moi=5 pfu/cell, 24 hours, read-out: ANTI-HSV ACTIVITY HSV-β-GAL ASSAY IC50
Procedure: HeLa and Vero cell cultures were maintained in Eagles Minimal Essential Medium (EMEM) which was supplemented with glutamine, penicillin, streptomycin and 10% fetal calf serum (10% EMEM). Stock cultures of HSV-2 (strain MS available from ATCC VR-540) were grown in and harvested from Vero cells. Viral stocks were titered in Vero cells according to established procedures.
Plasmid pON 245^ori- contains the promoter of the HSV-1 thymidine kinase (tk) gene located immediately 5' of the E. coli lac Z gene. In this arrangement, the tk promoter controls transcription from the bacterial gene in transient expression assays. Additionally, an SV40 polyadenylation signal is present at the 3' end of the lac Z gene to allow for the efficient translation of the mRNA in eucaryotic cells. The expression of beta galactosidase in a transient assay using pON 245^ori- is dependent upon superinfection of the transfected cells with HSV. […] For example see U.S. application Ser. No. 07/435,491 filed Sep. 5, 1989, the disclosure of which is incorporated herein by reference thereto.
HeLa cells were seeded into 96 well microtiter plates and allowed to grow to 80% confluency (approximately 35,000 cells/well). One half microgram of plasmid pON 245^ori- DNA was introduced into the cells of each well by the […] precipitation technique (Grahman and Van der Eb, 1973). Four to six hours later, the cells were rinsed with hank's Balanced Salt Solution (HBSS), overlaid with 10% EMEM and incubated at 37° C. At 24 hrs post-transfection, cells were rinsed, overlaid with 10% EMEM again and re-incubated at 37° C. At 48 hrs post-transfection, cells were rinsed and overlaid with either EMEM containing 2% fetal calf serum (2% EMEM), 2% EMEM containing HSV-2 (strain MS, Multiplicity of Infection [moi]=5 pfu/cell) or 2% EMEM containing HSV-2 and the appropriate concentration of Schering compound to be tested. Twenty-four hours later, the cells were harvested and assayed for beta galactosidase activity as described below.
All determinations of beta galactosidase activity were performed in 96 well microtiter plates. The intracellular level of beta galactosidase activity in each well was determined from cell lysates of the monolayer cultures. Aliquots were assayed by incubation in the presence of beta galactosidase substrate, 4-methylumbelliferyl-β-D-galactoside (MUG, 125 ug/ml, Sigma), for 2 hours. The generation of fluorescent product was quantified on a Microfluor microfluorimeter (Dynatech) after addition of 0.1M glycine, pH 10.3 (Spaete and Mocarski, 1985). The inhibitory activity of a compound was plotted versus the concentration and an IC50 value (the concentration of compound required to reduce beta glactosidase expression by 50%) was obtained for each compound tested.

[2] = Compound toxicity assay: inhibition of HeLa cell translation (^3 H-LEU assay); assay type: cell-based; conditions: human; HeLa cells, overnight (24 hours) treatment, tritiated leucine incorporation; read-out: CYTOTOXICITY ^3 H--LEU ASSAY IC50
Procedure: HeLa cells were treated with inhibitory compound for 24 hours, after which levels of translational activity were assayed.
For assay of translational activity, HeLa cultures were grown to 80% confluency in 96 well microtiter plates, treated with appropriate concentrations of compound in 2% EMEM during an overnight incubation at 37° C., then rinsed with HBSS and overlaid with […] of 2% EMEM containing 8 uCi of tritiated leucine (^3 H-LEU, 141 Ci/mMol, Amersham Corp., Arlington Heights Ill.). After 1 hr incubation at 36.5° C., the cells were rinsed twice with phosphate buffered saline (PBS) and lysed in 400 ul/well of 1×PBS, 0.5% sodium dodecyl sulphate (SDS). After a 10 minute incubation at 36.5° C., the contents of the well were transferred to a well in a Millititer HA microfiltration plate (Millipore Corp., Bedford, MA). The TCA insoluble proteins were precipitated onto the filter disc by a 10 minute fixation with 5% TCA, followed by filtration under vacuum and three 10 minute rinses with 95% ethanol. The filters were dried at room temperature, cut from the milltitier plate and transferred to scintillation vials. TCA precipitable counts were assayed in 5 ml of Scintisol (Isolab, Akron, Ohio). The inhibitory activity of a compound was plotted versus the concentration and an IC50 value (that concentration of the compound required to decrease cellular translational activity by 50%) was derived for each compound.

IC50 [1] | Structure (SMILES) | CC50 at 24 h [2]
9 µg/mL (≈ 30.8 µM) | CN1C(=O)C(=CNCc2ccccc2)C(=O)c2ccccc21 [EX. 14, (E,Z) 1-Methyl-3-Benzylaminomethylene-Quinolin-2,4(1H)-Dione] | 27 µg/mL (≈ 92.4 µM)
6 µg/mL (≈ 15.6 µM) | Cc1ccc2c(c1)C(=O)C(=CNCc1ccncc1)C(=O)N2Cc1ccccc1 [EX. 15, (E,Z)1-Benzyl-3-[4-Pyridylmethylamino)methylene]-6-Methyl-Quinolin-2,4(1H)-Dione] | 37 µg/mL (≈ 96.5 µM)
< 3 µg/mL | O=C1C(=CNCc2ccccc2)C(=O)N(Cc2ccccc2)c2ccc(Cl)cc21 [EX. 16, (E,Z 1-Benzyl-3-Benzylaminomethylene-6-Chloro-Quinolin-2,4(1H)-Dione] | 7 µg/mL (≈ 17.4 µM)
4 µg/mL (≈ 9.9 µM) | O=C1C(=CNCc2ccncc2)C(=O)N(Cc2ccccc2)c2ccc(Cl)cc21 [EX. 17, (E,Z1-Benzyl-3-[(4-Pyridylmethylamino)methylene-6-Chloro-Quinolin-2,4(1H)-Dione] | 17 µg/mL (≈ 42.1 µM)
6 µg/mL (≈ 14.9 µM) | O=C1C(=CNCc2ccccc2)C(=O)N(Cc2ccccc2)c2cc(Cl)ccc21 [EX. 18, (E,Z)1-Benzyl-3-Benzylaminomethylene-7-Chloro-Quinolin-2,4(1H)-Dione] | 10 µg/mL (≈ 24.8 µM)
13 µg/mL (≈ 32.2 µM) | O=C1C(=CNCc2ccncc2)C(=O)N(Cc2ccccc2)c2cc(Cl)ccc21 [EX. 19, (E,Z)1-Benzyl-3-[(4-Pyridylmethylamino)methylene]7-Chloro-Quinolin-2,4(1H)-Dione] | 40 µg/mL (≈ 99 µM)
3 µg/mL (≈ 7.84 µM) | Cc1cccc2c1N(Cc1ccccc1)C(=O)C(=CNCc1ccccc1)C2=O [EX. 20, (E,Z) 1-Benzyl-3-Benzylaminomethylene-8-Methyl-Quinolin-2,4(1H)-Dione] | 10 µg/mL (≈ 26.1 µM)
< 3 µg/mL | Cc1cccc2c1N(Cc1ccccc1)C(=O)C(=CNCc1ccncc1)C2=O [EX. 21, (E,Z)1-Benzyl-3-[(4-Pyridylmethylamino)methylene]-8-Methyl-Quinolin-2,4(1H)-Dione] | 29 µg/mL (≈ 75.6 µM)
< 3 µg/mL | CN1C(=O)C(=CNCc2ccncc2)C(=O)c2ccccc21 [EX. 22, (E,Z)1-Methyl-3-[(4-Pyridylmethylamino)methylene]Quinolin-2,4(1H)-Dione] | 100 µg/mL (≈ 341 µM)
10 µg/mL (≈ 27.1 µM) | O=C1C(=CNCc2ccncc2)C(=O)N(Cc2ccccc2)c2ccccc21 [EX. 24, (E,Z)1-Benzyl-3-[(4-Pyridylmethylamino)methylene]-Quinolin-2,4(1H)-Dione] | > 100 µg/mL
< 3 µg/mL | CCCCCCN1C(=O)C(=CNCc2ccccc2)C(=O)c2ccccc21 [EX. 25, (E,Z)1-hexyl-3-benzyleminomethylene-quinolin-2,4(1H)-Dione] | 37 µg/mL (≈ 102 µM)
4 µg/mL (≈ 11 µM) | CCCCCCN1C(=O)C(=CNCc2ccncc2)C(=O)c2ccccc21 [EX. 26, (E,Z)1Hexyl-3-[(4-Pyrigylmethylamino)methylene-Quinolin-2,4(1H)-Dione] | 43 µg/mL (≈ 118 µM)
4 µg/mL (≈ 11.3 µM) | O=C1C(=CNCc2ccccc2)C(=O)N(c2ccccc2)c2ccccc21 [EX. 27, (E,Z)1-Phenyl-3-Benzylaminomethylene-Quinolin-2,4(1H)-Dione] | 10 µg/mL (≈ 28.2 µM)
7 µg/mL (≈ 19.7 µM) | O=C1C(=CNCc2ccncc2)C(=O)N(c2ccccc2)c2ccccc21 [EX. 28, (E,Z)1-Phenyl-3-[(-Pyridylmethylamino)methylene]Quinolin-2,4(1H)-Dione] | 25 µg/mL (≈ 70.3 µM)
5 µg/mL (≈ 13.3 µM) | CCCCCCCN1C(=O)C(=CNCc2ccccc2)C(=O)c2ccccc21 [EX. 29, (E,Z)1-Heptyl-3-Benzylaminomethylene-Quinolin-2,4(1H)-Dione] | 16 µg/mL (≈ 42.5 µM)
3 µg/mL (≈ 7.95 µM) | CCCCCCCN1C(=O)C(=CNCc2ccncc2)C(=O)c2ccccc21 [EX. 30, (E,Z)1-Heptyl-3-[(4-Pyridylmethylamino)methylene]-Quinolin-2,4(1H)-Dione] | 20 µg/mL (≈ 53 µM)
> 25 µg/mL | CCNC=C1C(=O)Oc2ncccc2C1=O [EX. 38, 3-(ethylaminomethylene)-2,4-dioxo 3,4-dihydro-2H-pyrido-[2,3-b]-pyran] | –
